Experimental data from ChEMBL document CHEMBL2074481, “Regulation of rat multidrug resistance protein 2 by classes of prototypical microsomal enzyme inducers that activate distinct transcription pathways” (Toxicol Sci, 2002).

Molecular target: ATP-binding cassette sub-family C member 2 (Rattus norvegicus, UniProt Q63120)
Test: TP_TRANSPORTER: Western in vivo, liver of SD rat
Format: functional, organism-based, Sprague-Dawley

ATP-binding cassette sub-family C member 2, sequence (Q63120 whole entry): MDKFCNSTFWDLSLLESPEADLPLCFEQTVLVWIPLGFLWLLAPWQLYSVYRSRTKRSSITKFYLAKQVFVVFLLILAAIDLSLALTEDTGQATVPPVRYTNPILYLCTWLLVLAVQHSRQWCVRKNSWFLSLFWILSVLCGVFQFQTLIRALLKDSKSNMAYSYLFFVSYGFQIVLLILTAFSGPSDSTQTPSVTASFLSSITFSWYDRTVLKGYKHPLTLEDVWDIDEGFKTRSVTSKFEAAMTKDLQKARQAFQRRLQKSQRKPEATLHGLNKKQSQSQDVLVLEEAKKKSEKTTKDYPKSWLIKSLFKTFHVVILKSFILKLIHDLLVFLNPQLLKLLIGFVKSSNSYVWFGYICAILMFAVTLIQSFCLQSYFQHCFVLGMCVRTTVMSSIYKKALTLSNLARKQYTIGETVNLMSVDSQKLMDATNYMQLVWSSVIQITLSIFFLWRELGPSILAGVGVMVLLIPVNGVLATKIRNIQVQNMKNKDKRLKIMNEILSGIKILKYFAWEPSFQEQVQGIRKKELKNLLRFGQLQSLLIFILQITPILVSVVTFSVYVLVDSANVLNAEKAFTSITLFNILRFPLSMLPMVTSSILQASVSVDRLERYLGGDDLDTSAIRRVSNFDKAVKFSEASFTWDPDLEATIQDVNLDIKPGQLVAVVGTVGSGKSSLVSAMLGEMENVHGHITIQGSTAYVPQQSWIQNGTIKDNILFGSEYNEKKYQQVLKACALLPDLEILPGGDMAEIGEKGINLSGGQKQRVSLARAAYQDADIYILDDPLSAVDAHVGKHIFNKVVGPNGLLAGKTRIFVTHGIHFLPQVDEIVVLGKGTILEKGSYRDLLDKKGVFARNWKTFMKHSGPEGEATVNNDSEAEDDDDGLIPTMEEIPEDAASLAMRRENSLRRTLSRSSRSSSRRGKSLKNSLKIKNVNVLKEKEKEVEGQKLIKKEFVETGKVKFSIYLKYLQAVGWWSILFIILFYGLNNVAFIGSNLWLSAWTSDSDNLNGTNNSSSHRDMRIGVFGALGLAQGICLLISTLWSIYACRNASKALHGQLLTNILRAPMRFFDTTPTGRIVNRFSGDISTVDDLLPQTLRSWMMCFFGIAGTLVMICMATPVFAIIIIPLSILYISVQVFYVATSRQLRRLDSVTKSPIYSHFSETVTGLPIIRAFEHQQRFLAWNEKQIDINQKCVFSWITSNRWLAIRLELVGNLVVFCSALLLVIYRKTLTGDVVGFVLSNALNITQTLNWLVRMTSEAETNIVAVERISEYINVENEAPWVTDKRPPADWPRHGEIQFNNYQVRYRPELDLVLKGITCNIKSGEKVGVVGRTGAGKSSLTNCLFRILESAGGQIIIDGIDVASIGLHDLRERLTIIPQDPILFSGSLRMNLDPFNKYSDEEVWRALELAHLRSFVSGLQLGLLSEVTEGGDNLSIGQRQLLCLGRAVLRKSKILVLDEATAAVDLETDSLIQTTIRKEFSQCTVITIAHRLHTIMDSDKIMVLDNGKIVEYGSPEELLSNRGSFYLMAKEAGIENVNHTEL

Row | Structure (SMILES) | Activity
1 | CC(=O)S[C@@H]1CC2=CC(=O)CC[C@]2(C)[C@H]2CC[C@@]3(C)[C@@H](CC[C@@]34CCC(=O)O4)[C@H]12 [SPIRONOLACTONE] | inducer [+]
2 | CCOc1ccc2c(c1)C(C)=CC(C)(C)N2 [E324] | inducer [+]
